# Test results reported in US4520022A, “Substituted vinyl cephalosporins” (priority 1983, dated 1985).
# Where “and” joins values, the source holds several entries; their conditions need not be identical. Equal entries are not always repeated. Where two headings read alike, the source gives them in different places.
# Legend:
# [1] = system: Gp Ia: S. aureus Smith A9537, A9497, Terajima, A9534, A9601; settings: Staphylococcus aureus
# [2] = mouse, in vivo, po
# E. coli Juhl = test: Protective dose, mice infected with lethal inoculum, oral treatment, E. coli Juhl; type: in vivo; settings: for ED50: Escherichia coli, po, 120 h
# in vivo = settings: mouse; for half-life: T1/2
# [3] = Metabolism in the rat (urine after oral administration); type: in vivo, Wister rats; settings: oral 100 mg/kg; urine 24 hours
# Protocol: Refer to Procedure 43. Compound No. 37 is the 3,4-dihydroxyphenyl compound and Compound No. 42 is the 3-methoxy-4-hydroxyphenyl compound.
# Six male Wister rats (400-600 g) were placed in steel metabolic cages after the oral administration of Compound 37 at the dose of 100 mg/kg and urine was collected over a period of 24 hours. The rats were fed their regular diet and given water during the experiment.
# The urine (ca. 90 ml) was adjusted to pH 3 with N hydrochloric acid and filtered to remove a precipitate. The filtrate was chromatographed on a column packed with 300 ml of HP-20 by eluting with 2 L of water and 2 L of 30% methanol under monitoring the HPLC. The fractions containing the bioactive components of the 30% methanol eluate were collected, concentrated to 10 ml and lyophilized to give 390 mg of brown solid. A solution of the solid in 20 ml of water was chromatographed on a column packed with 200 ml of the packing of a prepPAK-C18 cartridge (Waters) by eluting with water, 5% methanol, and 10% methanol, successively. The first half of the 5% methanol eluate was concentrated to 5 ml and lyophilized to give 44 mg of Compound 37 (70% pure) containing impurities derived from urine. The second half of the 5% methanol eluate was concentrated to 5 ml and lyophilized to give 36 mg of product, which was a mixture of Compound 37, Compound 42, and impurities derived from urine. […]
# bacteria = test: Antibacterial activity, general statements; settings: in words
# [4] = system: Gp Ib: S. aureus 193, BX-1633-2 A9606, A15092, Russell, A9602; settings: Staphylococcus aureus
# S. aureus Smith = test: Protective dose, mice infected with lethal inoculum, oral treatment, S. aureus Smith; type: in vivo; settings: for ED50: Staphylococcus aureus, po, 120 h
# S. pyogenes = test: In vitro activity against Streptococci (MIC), S. pyogenes; type: cell-based
# C. perfringens A9645 = test: microbe, parasite or virus in culture; type: cell-based; settings: Clostridium perfringens
# C. difficile A21675 = test: In vitro activity against anaerobes (MIC), C. difficile; type: cell-based; settings: Clostridioides difficile; Gp rods; C. difficile A21675; clindamycin resistant; read-out: MIC
# Gp, rods; Gp, cocci = test: microbe, parasite or virus in culture; type: cell-based, C. difficile; C. perfringens; P. acnes; P. anaerobius; settings: read-out: MIC, Geometric Mean
# H. influenza A9729 = test: Protective dose PD50, mice infected with lethal inoculum, oral treatment, H. influenza A9729; type: in vivo; settings: Mus musculus, 120 h
# Description: The structure activity correlations drawn from the foregoing in vitro studies are born out by the results of in vivo studies in mice. Table 4 is a tabulation of the protective doses for mice infected with a lethal inoculum of a bacteria. Two different bacteria were employed in the studies, one a Gram+ organism and the other a Gram- organism. The protective dose (PD50) is that dose which when administered to a group of infected mice results in 50% survival after five days. Normally untreated infected mice die within three days following injection of the lethal inoculum.
# Protective Dose PD50 for Mice Infected with Lethal Inoculum
# S. pyogenes A20201 = test: Protective dose PD50, mice infected with lethal inoculum, oral treatment, S. pyogenes A20201; type: in vivo; settings: Streptococcus pyogenes, 120 h
# S. aureus BX-1633 = test: Protective dose PD50, mice infected with lethal inoculum, oral treatment, S. aureus BX-1633; type: in vivo; settings: Staphylococcus aureus, BX1633, 120 h
# P. mirabilis A9554 = test: Protective dose PD50, mice infected with lethal inoculum, oral treatment, P. mirabilis A9554; type: in vivo
# H. influenzae = test: In vitro activity against Haemophilis (MIC), H. influenzae; type: cell-based; settings: Haemophilus influenzae, Compound 9 lot 2, read-out: MIC
# B. fragilis = test: In vitro activity against anaerobes (MIC), B. fragilis; type: cell-based; settings: Bacteroides fragilis
# S. pneumoniae = test: In vitro activity against Streptococci (MIC), S. pneumoniae; type: cell-based; settings: Streptococcus pneumoniae
# [5] = read-out: Minimum Inhibitory Concentration Gp Ia, Mueller-Hinton agar, run 2, average of five organisms
# [6] = read-out: Minimum Inhibitory Concentration Gp Ib, Mueller-Hinton agar, run 2, average of five organisms
# [7] = oral, value in parentheses: cephalexin in the same run as the compound of that line, 7200 min
smiles,measurement,setting,value
"C/C=C\C1=C(C(=O)O)N2C(=O)[C@@H](NC(=O)[C@H](N)c3ccc(O)c(O)c3)[C@H]2SC1 [Compound 37, 7β-[D(-)-2-Amino-2-(3,4-dihydroxyphenyl)acetamido]-3-[(Z)-1-propen-1-yl]-3-cephem-4-carboxylic Acid]",MIC,[1]; [5],6.3 µg/mL
same,MIC,"[1]; read-out: Minimum inhibitory Concentration Gp Ia, Test Medium Comparison, A: Mueller-Hinton agar, average values",4.8 µg/mL
same,MIC,"[1]; read-out: Minimum inhibitory Concentration Gp Ia, Test Medium Comparison, B: Nutrient agar, average values",0.4 µg/mL
same,blood levels following oral administration,[2],exceptionally high blood levels
same,ED50,"E. coli Juhl; oral, 50% survival for 5 days, groups of 5 mice, read-out: Protective dose (PD50), E. coli Juhl",0.44 mg/kg
same,activity against the Gram- infection,E. coli Juhl; in words,more active against the Gram- infection
same,AUC,"in vivo; im, 20 mg/kg, AUC*",233 µg·h/mL
same,Cmax,"in vivo; im, 20 mg/kg",86 µg/mL
same,half-life,"in vivo; im, 20 mg/kg",72 min
same,AUC,"in vivo; po, 20 mg/kg, AUC*",270 µg·h/mL
same,Cmax,"in vivo; po, 20 mg/kg",58 µg/mL
same,half-life,"in vivo; po, 20 mg/kg",306 min
same,AUC,"in vivo; po, 100 mg/kg, AUC",666 µg·h/mL
same,Cmax,"in vivo; po, 100 mg/kg",180 µg/mL
same,half-life,"in vivo; po, 100 mg/kg",150 min
same,metabolism in the rat,[3],metabolized in the rat to Compound No. 42
same,antibacterial activity,bacteria,highly active substance against both the Gram+ and Gram- bacteria
same,MIC,[4]; [6],7.2 µg/mL
same,MIC,"[4]; read-out: Minimum inhibitory Concentration Gp Ib, Test Medium Comparison, A: Mueller-Hinton agar, average values",6.3 µg/mL
same,MIC,"[4]; read-out: Minimum inhibitory Concentration Gp Ib, Test Medium Comparison, B: Nutrient agar, average values",0.61 µg/mL
same,ED50,"S. aureus Smith; oral, 50% survival for 5 days, groups of 5 mice, read-out: Protective dose (PD50), S. aureus Smith",0.13 mg/kg
CC1=C(C(=O)O)N2C(=O)[C@@H](NC(=O)[C@H](N)c3ccccc3)[C@H]2SC1 [Cephalexin],MIC,"S. pyogenes; S. pyogenes A9604, Compound 9 lot 2",0.8 µg/mL
same,MIC,"S. pyogenes; S. pyogenes A15040, Compound 9 lot 2",0.8 µg/mL
same,MIC,"S. pyogenes; S. pyogenes A20065, Compound 9 lot 2",0.8 µg/mL
same,MIC,"S. pyogenes; S. pyogenes A20201, Compound 9 lot 2",0.8 µg/mL
same,MIC,"S. pyogenes; S. pyogenes Dick, Compound 9 lot 2",0.8 µg/mL
same,MIC,S. pyogenes; Streptococcus pyogenes,0.8 µg/mL
same,MIC,"S. pyogenes; Streptococcus pyogenes, read-out: MIC, Geometric Mean",0.8 µg/mL
same,MIC,C. perfringens A9645,12.5 µg/mL
same,MIC,C. difficile A21675,100 µg/mL
same,MIC,"[1]; read-out: Minimum Inhibitory Concentration Gp Ia, Mueller-Hinton agar, run 1, average of five organisms",1.2 µg/mL
same,MIC,[1]; [5],0.7 µg/mL
same,ED50,"E. coli Juhl; read-out: Protective dose (PD50) of cephalexin in the same run, E. coli Juhl, oral, value in parentheses: cephalexin in the same run as the compound of that line",8.4 mg/kg
same,"Protective dose (PD50) of cephalexin in the same run, E. coli Juhl",E. coli Juhl; [7],8.2 mg/kg
same,MIC,"Gp, rods; Gp, cocci",11 µg/mL
same,ED50,H. influenza A9729,18 mg/kg
same,ED50,S. pyogenes A20201,0.74 mg/kg
same,MIC,"[4]; read-out: Minimum Inhibitory Concentration Gp Ib, Mueller-Hinton agar, run 1, average of five organisms",4.1 µg/mL
same,MIC,[4]; [6],3.6 µg/mL
same,ED50,"S. aureus Smith; read-out: Protective dose (PD50) of cephalexin in the same run, S. aureus Smith, oral, value in parentheses: cephalexin in the same run as the compound of that line",0.31 mg/kg
same,"Protective dose (PD50) of cephalexin in the same run, S. aureus Smith",S. aureus Smith; [7],0.27 mg/kg and 0.22 mg/kg
same,ED50,S. aureus BX-1633,17 mg/kg
same,Protective Dose PD50,P. mirabilis A9554,12.5
same,MIC,H. influenzae; H. influenzae A22157,3.1 µg/mL
same,MIC,H. influenzae; H. influenzae A22481,3.1 µg/mL
same,MIC,H. influenzae; H. influenzae A22491,3.1 µg/mL
same,MIC,"B. fragilis; B. fragilis A20928-1, A21900, A20935, β-lactamase (-), read-out: MIC, Geometric Mean",9.9 µg/mL
same,MIC,"B. fragilis; B. fragilis A20928-1, β-lactamase (-)",12.5 µg/mL
same,MIC,"B. fragilis; B. fragilis A22021, β-lactamase (+), read-out: MIC",100 µg/mL
same,MIC,"B. fragilis; B. fragilis A22053, A22021, A22693, β-lactamase (+), read-out: MIC, Geometric Mean",> 75 µg/mL
same,MIC,"B. fragilis; B. fragilis A22053, β-lactamase (+), read-out: MIC",25 µg/mL
same,MIC,"B. fragilis; B. fragilis A22533, β-lactamase (+), read-out: MIC",> 100 µg/mL
same,MIC,"B. fragilis; B. fragilis A22693, β-lactamase (+), read-out: MIC",> 100 µg/mL
same,MIC,"B. fragilis; B. fragilis A22695, A22533, β-lactamase (+), read-out: MIC, Geometric Mean",> 100 µg/mL
same,MIC,"B. fragilis; B. fragilis A22695, β-lactamase (+), read-out: MIC",100 µg/mL
same,MIC,S. pneumoniae,3.1 µg/mL
same,MIC,"S. pneumoniae; S. pneumoniae A9585, Compound 9 lot 2",3.1 µg/mL
same,MIC,"S. pneumoniae; S. pneumoniae A15069, Compound 9 lot 2",3.1 µg/mL
same,MIC,"S. pneumoniae; S. pneumoniae A20759, Compound 9 lot 2",3.1 µg/mL
same,MIC,"S. pneumoniae; S. pneumoniae Type I, Compound 9 lot 2",3.1 µg/mL
same,MIC,"S. pneumoniae; S. pneumoniae Type III, Compound 9 lot 2",3.1 µg/mL
same,MIC,"S. pneumoniae; read-out: MIC, Geometric Mean",3.1 µg/mL
